The source of these data is ChEMBL document CHEMBL1142500, “'Reverse' alpha-ketoamide-based p38 MAP kinase inhibitors” (Bioorg Med Chem Lett, 2008).

Broadly, the IC50 is the concentration that inhibits the measured activity by half. High values mean lower potency, low ones higher potency. Broadly, the Tmax is the time from dosing to the highest level. In general, Cmax refers to the peak of the concentration-time curve. As a reminder, the half-life is the time needed for the level to fall by half in the phase considered. A low value points to rapid decline. The term bioavailability denotes dose-corrected exposure relative to a reference, in per cent. By clearance is commonly meant the volume of plasma or blood freed of the substance per unit of time. A higher clearance goes with efficient removal. The AUC is the area under the concentration-time curve, a measure of exposure. The low end stands for less exposure, the high end for more exposure.

Data set [1] relates to THP-1. In words: Inhibition of LPS-induced TNFalpha production in human THP1 cells. The format is functional, cell-based.
Data set [2] in a line: Volume of distribution at steady state in rat at 10 mg/kg, iv. Format: ADME, organism-based. More on the design: dose 10 mg/kg, route intravenous. The settings on record: in vivo, read-out: Vdss.
Data set [3] is described as follows: Tmax in rat at 30 mg/kg, po. Particulars: in vivo. More on the design: dose 30 mg/kg, route oral. Format: ADME, organism-based.
Data set [4] can be described thus: Cmax in rat at 30 mg/kg, po. The format is ADME, organism-based. More on the design: dose 30 mg/kg, route oral. The settings on record: in vivo.
The target of data set [5] is T1, Mitogen-activated protein kinase 14 (Homo sapiens, UniProt Q16539). Put plainly: Inhibition of human p38alpha.
T1 sequence (Q16539 whole entry): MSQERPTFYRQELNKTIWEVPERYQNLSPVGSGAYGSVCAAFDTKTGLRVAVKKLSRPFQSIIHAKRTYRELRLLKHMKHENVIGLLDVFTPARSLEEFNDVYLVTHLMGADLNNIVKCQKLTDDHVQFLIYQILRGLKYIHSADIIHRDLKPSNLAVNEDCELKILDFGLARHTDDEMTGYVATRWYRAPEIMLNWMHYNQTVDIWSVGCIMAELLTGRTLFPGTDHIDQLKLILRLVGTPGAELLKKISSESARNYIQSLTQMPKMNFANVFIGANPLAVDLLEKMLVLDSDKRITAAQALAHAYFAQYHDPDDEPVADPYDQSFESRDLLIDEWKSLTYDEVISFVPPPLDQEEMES
Data set [6] is described as follows: Half life in rat at 30 mg/kg, po. The format is ADME, organism-based. The settings on record: in vivo. Also on record: dose 30 mg/kg, route oral.
Data set [7] in a line: Oral bioavailability in rat at 30 mg/kg. Format: ADME, organism-based. Particulars: in vivo.
Data set [8] is described as follows: Clearance in rat at 10 mg/kg, iv. Particulars: in vivo. More on the design: dose 10 mg/kg, route intravenous. Format: ADME, organism-based.
Data set [9] has as its target T1, Mitogen-activated protein kinase 14. Put plainly: Inhibition of human p38alpha phosphorylation.
The nature of data set [10]: AUC in rat at 30 mg/kg, po. The format is ADME, organism-based. The settings on record: plasma. Also on record: dose 30 mg/kg, route oral.

As to `Cn1nc(C(C)(C)C)cc1NC(=O)C(=O)c1ccc(OCCN2CCOCC2)c2ccccc12`, inhibition in data set [1] was half-maximal at 440 nM (IC50).
For the compound `Cc1cccc(-n2nc(C(C)(C)C)cc2/C(=N/O)C(=O)Nc2ccc(OCCN3CCOCC3)c3ccccc23)c1`, the Vd in [2] is 1.5 L/kg. In addition, in [3], the Tmax is 1.5 h. Also, in [4], the Cmax was determined as 4000 ng/mL. The IC50 in [5] was 59 nM; in data set [9] it was 100 nM; in data set [1], 49 nM. In addition, in [6], the half-life is 2.9 h. Besides, in [7], the bioavailability worked out at 54%. For the same compound, in data set [8], the clearance is 10.2 mL/min/kg. The AUC in [10] was 26000 ng·h/mL.
On to `Cc1oc(C(C)(C)C)cc1C(=O)C(=O)Nc1ccc(OCCN2CCOCC2)c2ccccc12`, for which the IC50 in data set [5] was determined as 22 nM; in data set [9] it was 270 nM; in data set [1], 61 nM.
For `Cc1oc(C(C)(C)C)cc1C(=O)C(=O)Nc1ccc(-c2ccc(CN3CCOCC3)nc2)c2ccccc12` the same measures were 59 nM, 20 nM and 9 nM.
Compound `Cc1cccc(-n2nc(C(C)(C)C)cc2C(=O)C(=O)Nc2ccc(OCCN3CCOCC3)c3ccccc23)c1` showed an IC50 in [1] of 280 nM.
Still for that read-out and setting: in the case of `Cc1ccc(-n2nc(C(C)(C)C)cc2C(=O)C(=O)Nc2ccc(OCCN3CCOCC3)c3ccccc23)cc1` it was 330 nM; in that of `CC(C)(C)c1cc(C(=O)C(=O)Nc2ccc(OCCN3CCOCC3)c3ccccc23)n(-c2ccc(F)c(F)c2)n1`, 180 nM; in that of `Cc1ccc(-n2nc(C(C)(C)C)cc2/C(=C/O)C(=O)Nc2ccc(OCCN3CCOCC3)c3ccccc23)cc1`, 3300 nM.
The same measure, in the same setting: in the case of `Cc1oc(C(C)(C)C)cc1C(=O)C(=O)Nc1ccc(Nc2ncccn2)c2ccccc12` it was 460 nM; in that of `Cn1nc(C(C)(C)C)cc1NC(=O)C(=O)c1ccc(-c2ccc(CN3CCOCC3)nc2)c2ccccc12`, 850 nM.
As for `Cn1nc(C(C)(C)C)cc1C(=O)C(=O)Nc1ccc(OCCN2CCOCC2)c2ccccc12`, the IC50 in data set [5] was found to be 14 nM; in [9] it was 70 nM; in data set [1], 70 nM.
In data set [1], `Cc1oc(C(C)(C)C)cc1C(=O)C(=O)Nc1ccc(Nc2ccncn2)c2ccccc12` showed an IC50 of 59 nM. That is a double-digit nanomolar value.
